Consider one compound from patent US20170356895A1, “TOXICANT ASSAYS FOR CONSUMABLE PRODUCTS” (priority 2016, published 2017).

This data set relates to zebrafish (Danio rerio) AB strain embryos. Briefly: Acute toxicity testing of extracts using zebrafish embryos (mortality rate after 48 hr exposure). Format: in vivo. The note with it: 3.7 mg/L. The method, then:
Extracts prepared as described in Example 1 were tested for acute toxicity using zebrafish (Danio rerio) AB strain embryos. Chicken breast extracts were diluted into zebrafish embryo culture medium at 0.25, 0.50, 1.00, 2.00 and 4.00 μl/ml. Zebrafish AB strain embryos of 4-128 cell stages were exposed to extract dilutions in a 96-well plate at 1 embryo per well. Each concentration was tested with 20 embryos. Zebrafish embryo culture medium and 3.7 mg/L dichloroaniline were included as negative and positive controls, respectively. After 48 hr exposure at 26° C., zebrafish embryos were observed under a stereomicroscope and fish embryos that were coagulated, tail not detached, and having no heart beat were marked as dead. Mortality rate for each concentration was calculated as the acute toxicity endpoint. The mortality rate for the negative control was 0% and for the positive control was 65%.
The acute toxicity of milk powder extracts prepared as described in Example 4 were tested for acute toxicity using zebrafish (Danio rerio) AB strain embryos. Milk powder extracts were diluted into zebrafish embryo culture medium at 0.33, 0.50, 0.76, 1.74 and 4.00 μl/ml. Zebrafish AB strain embryos of 4-128 cell stages were exposed to extract dilutions in a 96-well plate with 1 embryo per well. […] Mortality rate of each concentration was calculated as the acute toxicity endpoint. […]

Molecules are shown by their SMILES.

With `Nc1ccc(Cl)c(Cl)c1` [3,4-dichloroaniline], where the note is “48-hr exposure at 26° C., Example 5 (milk powder test)”, the “Mortality rate for positive control” value was determined as 60%. The “Mortality rate for the positive control” value (48 hr exposure at 26° C., Example 2 (chicken breast test)) came out at 65%.
